Measured values reported in publication PMC6698794, “Catalytic Knockdown of miR-21 by Artificial Ribonuclease: Biological Performance in Tumor Model” (Frontiers in Pharmacology, 2019).
Where “and” joins values, the source holds several entries; their conditions need not be identical. Equal entries are not always repeated.

Tests used:
B16 cells = assay: In vitro invasiveness assay (xCELLigence, Matrigel-coated CIM-Plates); assay type: cell-based, mouse; details: 1 µM with Lipofectamine
Protocol: B16 cells were pre-seeded (2 × 10^5 per well of 24-well plates) in DMEM/10% FBS a day before transfection. Medium was replaced with serum-free DMEM, prior to incubation for 4 h with h-ODN, 2′-OMe, Inh (hsa-miR-21 5 p inhibitor, Ambion, USA), miR-21-miRNase, or luc-POC, each (0.1 or 1 µM) pre-complexed with Lipofectamine (Thermo Fisher Scientific, USA) in Opti-MEM medium (Thermo Fisher Scientific, USA) according to manufacturer’s instructions, then cells were cultivated in fresh culture standard medium for 24–72 h.
Real-time cell analysis (xCELLigence, ACEABiosciences, USA) used CIM-Plates held at 37°C under an atmosphere of 5% CO2. Top chamber wells were coated with Matrigel (20 µl per well, diluted 1:40 with cold serum-free DMEM) and allowed to polymerize (4 h at 37°C under 5% CO2) prior to cell seeding. Bottom chamber wells were filled with DMEM/10% FBS (160 µl each), prior to assembly of the chambers, when serum-free DMEM was added to the top wells (30 µl each) and equilibrated (1 h at 37°C under 5% CO2). At 4 h after transfection, B16 cells (4 × 10^4) were seeded into each top chamber well in serum-free DMEM and pre-incubated for 30 min at room temperature before monitoring (xCELLigence set to collect impedance data, reported as cell index at least once every 30 min).
Figure 2 Biological effect of the miR-21-specific miRNase. (A) Apoptotic profile of B16 melanoma cells after transfection with miR-21-miRNase and control luc-POC. Cytofluorimetric analysis of cells after staining with Annexin V-FITC/PI 48 h after transfection with miRNase or luc-POC (1 µM) in complex with Lipofectamine2000. Q1—population of living cells; Q2—Annexin V-FITC+/PI-, early apoptosis; Q3—Annexin V-FITC+/PI+, late apoptosis; Q4—Annexin V-FITC-/PI+, necrosis. (B) Average percentage of apoptotic (early and late apoptosis) and necrotic B16 cell population. Data represent mean ± s.e. of four independent experiments.(C, D) Invasion activity of B16 cells after incubation with Lipofectamine (LF) alone or treated with either hairpin antisense oligonucleotide (h-ODN), hairpin 2′-OMe oligonucleotide (2′-OMe), commercial miR-21 inhibitor (Inh), miR-21-miRNase, and control conjugate (luc-POC) in the concentration of 1 µM. Migration of cells was recorded in real time using the xCELLigence cell analysis system. Control—B16 cells without treatment. Data represent mean ± s.d. of four independent experiments.

RLS40 lymphosarcoma [1] = assay: Tumor transplantation assay: RLS40 cells treated ex vivo, then inoculated intramuscularly; assay type: in vivo, CBA mice; details: for Tumor doubling time, DT: DT = (t − t0) × ln 2/(ln V − ln V0)
Protocol: (§1) RLS40 ascites were taken from CBA mice intraperitoneally injected with tumor cells (2 × 10^6 in 0.2 ml buffered saline) into their abdominal cavities. RLS40 cells, isolated from ascites fluid by filtration through LSM were divided into seven portions: 1) untreated cells; 2) the cells incubated with Lipofectamine; the cells transfected with 1 µM of 3) h-ODN, 4) 2′-OMe, 5) Inh, 6) miR-21-miRNase, or 7) luc-POC each. After 4 h of transfection, cell suspensions (0.1 ml, 2 × 10^6 cells) were intramuscularly inoculated into the right lower limb of CBA mice for solid tumor development. As soon as tumors began to be palpable, the tumor volumes were measured every 2–3 days using calipers. Tumor volumes were calculated as V = (π/6 × length × width × height). Hepatic index was estimated as (liver weight/mouse weight) × 100% and as 5.0% for healthy CBA mice. Tumor doubling time (DT) was estimated as DT = (t − t0) × ln 2/(ln V − ln V0), where (t − t0) indicates the length of time between two measurements of tumor size and V0 and V denote the tumor volume at two points of the measurement ([Ozono et al., 2004]).
Figure 3 Antitumor effect of miR-21-specific miRNase. (A) Retardation of RLS40 growth in vivo after treatment of RLS40 cells with antisense oligonucleotides, control conjugate (luc-POC), or miR-21-miRNase. (B) Tumor volume on day 19 after RLS40 transplantation. Mice were injected with RLS40 cells either without any treatment (w/t) or treated with Lipofectamine (LF), commercial miR-21 inhibitor at concentration 0.1 µM (Inh 0.1, recommended) and 1 µM (Inh 1, in accordance to concentration of miRNase used in the study), control conjugate (luc-POC, 1 µM), hairpin 2′OMe oligonucleotide (2′-OMe, 1 µM), hairpin antisense oligonucleotide (h-ODN, 1 µM) or miR-21-specific miRNase (miR-21-miRNase, 1 µM). Data were statistically analyzed using two-way ANOVA with post hoc Tukey test. Data are presented as mean ± s.e. p-value indicates a statistically reliable difference. (C) Doubling time of RLS40 tumors after treatment with oligonucleotides and conjugates. TEXT PRINTED IN THE PICTURE: (C) untreated: DT, days: 2,45±0,49 | (C) LF: DT, days: 2,48±0,35 | (C) Inh 0.1: DT, days: 2,56±0,59 | (C) Inh 1: DT, days: 13,90±0,46 | (C) 2’-OMe: DT, days: 3,17±1,45 | (C) luc-POC: DT, days: 2,40±0,45 | (C) h-ODN: DT, days: 3,00±1,83 | (C) miR-21-miRNase: DT, days: 12,77±0,34

RLS40 lymphosarcoma [2] = assay: Hepatic index of mice implanted with treated RLS40 cells; assay type: in vivo; details: cells treated with 1 µM; (liver weight/mouse weight) × 100%; 5.0% for healthy CBA mice; Mean ± SE
Protocol: as §1
Supplementary Table 2. Hepatic indexes of mice implanted with RLS40 treated with antisense
oligonucleotides, control luc-POC and miR-21-miRNase
Type of treatment Hepatic index, %* p-value (vs control)
* – Mean ± SE; s.i. – statistically insignificant
Hepatic index was estimated as (liver weight/mouse weight) × 100% and as 5.0% for healthy CBA
The MDR status of RLS40 may add to the burden on the liver, when this type of tumor
metastasizes into the liver (Sen’kova et al., 2012). Ex vivo treatment of RLS40 cells by
oligonucleotides and miRNase avoids the toxic effect of antisense oligonucleotides, their conjugates
and transfection reagents directly on the tumor-bearing animal. This may allow consideration of
whether the decrease of migration activity of tumor cells translated into reduced metastatic burden of
RLS40 on the liver. Treatment of the cells seeding the tumor may not reduce migration and […]

[3] = cells treated with 1 µM before transplantation

| Substance | Migration rate of transfected B16 cells (in words) (B16 cells; compared with Lipofectamine alone) | Retardation of tumor growth, mean tumor volume times less than in the control group (RLS40 lymphosarcoma [1]; cells transfected once with 1 µM for 4 h, 2 × 10^6 cells i.m. into CBA mice, day 19) | Tumor doubling time against w/t (in words) (RLS40 lymphosarcoma [1]; [3]) | Tumor doubling time, DT (RLS40 lymphosarcoma [1]; [3]) | Hepatic index (RLS40 lymphosarcoma [2]) [%] | Inhibition of invasion of B16 cells relative to luc-POC (B16 cells; time point 40 h) | Inhibition of invasion of B16 cells relative to control (B16 cells; time point 40 h, four independent experiments) | Increase of tumor doubling time over untreated control (w/t) (RLS40 lymphosarcoma [1]; [3]) [fold] |
| --- | --- | --- | --- | --- | --- | --- | --- | --- |
| h-ODN: miR-21-targeted hairpin deoxyribooligonucleotide AGTCTGATAAGCTACAAGTCAGCGAAAGCTGACTTG, unconjugated with the peptide (DNA, backbone and methylation of C not given here; hairpin at 3' end, unconjugated) | almost the same rate as cells incubated with Lipofectamine | about 2 fold | did not show a statistically significant difference | 3,00±1,83 days | 5.23±0.17 | – | – | – |
| acetyl-[(LeuArg)2Gly]2-aminohexyl-AGTCTGATAAGCTACAAGTCAGCGAAAGCTGACTTG [miR-21-miRNase, peptide acetyl-[(LeuArg)2Gly]2 conjugated through aminohexyl linker to 5′-end of miR-21-targeted hairpin oligodeoxyribonucleotide] | – | – | – | 12,77±0,34 days and 12.77 days | 5.1±0.16 | about 70% | about 70% | > 5 |
